Results as given in US9493441B2, “Acyclic cyanoethylpyrazoles as janus kinase inhibitors” (Merck Sharp & Dohme Corp., priority 2011, dated 2016).
Where two headings read alike, the source gives them in different places.

Key:
[1] = biological target: JAK2 (Homo sapiens (Human), UniProt O60674); assay: Jak biochemical HTRF assay, JAK2
[2] = biological target: JAK1 (Homo sapiens (Human), UniProt P23458); assay: Jak biochemical HTRF assay, JAK1
[3] = JAK2 IC50 (nM), recombinant GST-tagged catalytic domain, [ATP] […]
[4] = JAK1 IC50 (nM), recombinant GST-tagged catalytic domain, [ATP] 31.8 μM
[5] = read-out: JAK2 IC50, recombinant GST-tagged catalytic domain, [ATP] […]
[6] = read-out: JAK1 IC50, recombinant GST-tagged catalytic domain, [ATP] 31.8 μM

Chain of JAK1 (P23458 875-1153): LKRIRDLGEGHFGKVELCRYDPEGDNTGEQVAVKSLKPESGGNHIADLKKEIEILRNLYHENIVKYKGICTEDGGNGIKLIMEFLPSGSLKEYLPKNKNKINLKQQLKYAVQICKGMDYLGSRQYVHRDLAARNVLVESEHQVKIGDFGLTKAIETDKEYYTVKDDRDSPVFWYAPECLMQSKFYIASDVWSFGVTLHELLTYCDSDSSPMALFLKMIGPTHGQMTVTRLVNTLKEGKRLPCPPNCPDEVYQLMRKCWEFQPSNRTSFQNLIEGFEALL
Chain of JAK2 (O60674 849-1124): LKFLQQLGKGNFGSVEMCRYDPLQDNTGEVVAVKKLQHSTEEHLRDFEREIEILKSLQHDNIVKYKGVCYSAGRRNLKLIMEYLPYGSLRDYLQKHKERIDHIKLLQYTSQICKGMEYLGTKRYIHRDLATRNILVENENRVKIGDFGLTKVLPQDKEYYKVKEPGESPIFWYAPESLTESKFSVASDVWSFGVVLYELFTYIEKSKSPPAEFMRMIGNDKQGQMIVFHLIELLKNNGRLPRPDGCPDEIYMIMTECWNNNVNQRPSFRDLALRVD

Row | IC50 [1, 3] | IC50 [2, 4] | IC50 [1, 5] | IC50 [2, 6] | SMILES
1 | 34 nM | 2 nM | – | – | N#CCC(C1CC1)n1cc(C(N)=O)c(Nc2ccc3c(c2)C=CS3(=O)=O)n1 (stereo not drawn) [Example 4-35, 1-(2-cyano-1-cyclopropylethyl)-3-[(1,1-dioxido-1-benzothiophen-5-yl)amino]-1H-pyrazole-4-carboxamide]
2 | 1480 nM | 241 nM | – | – | N#CCC(C1CCOCC1)n1cc(C(N)=O)c(Nc2ccccc2)n1 (stereo not drawn) [Example 1-9, 1-[2-cyano-1-(tetrahydro-2H-pyran-4-yl)ethyl]-3-(phenylamino)-1H-pyrazole-4-carboxamide]
3 | 277 nM | 65 nM | – | – | Cc1nc(-c2ccc(Nc3nn(C(CC#N)C4CC4)cc3C(N)=O)cc2)no1 (stereo not drawn) [Example 4-26, 1-(2-cyano-1-cyclopropylethyl)-3-{[4-(5-methyl-1,2,4-oxadiazol-3-yl)phenyl]amino}-1H-pyrazole-4-carboxamide]
4 | 190 nM | 16 nM | – | – | N#CC[C@@H](C1CC1)n1cc(C(N)=O)c(Nc2ccnc(F)c2)n1 (single isomer, unassigned) [Example 17-5, 1-[(1R or 1S)-2-cyano-1-cyclopropylethyl]-3-[(2-fluoropyridin-4-yl)amino]-1H-pyrazole-4-carboxamide]
5 | 1480 nM | 360 nM | – | – | N#CCC(C1CC1)n1cc(C(N)=O)c(Nc2ccccc2F)n1 (stereo not drawn) [Example 4-5, 1-(2-cyano-1-cyclopropylethyl)-3-[(2-fluorophenyl)amino]-1H-pyrazole-4-carboxamide]
6 | 1500 nM | 181 nM | – | – | COCCOC(=O)N1CCC([C@H](CC#N)n2cc(C(N)=O)c(Nc3ccc(F)cc3)n2)CC1 [Example 12-1, 2-Methoxyethyl 4-[(1S)-1-{4-carbamoyl-3-[(4-fluorophenyl)amino]-1H-pyrazol-1-yl}-2-cyanoethyl]piperidine-1-carboxylate]
7 | 16 nM | 3 nM | – | – | CN(C)C(=O)c1ccc(Nc2nn(C(CC#N)C3CC3)cc2C(N)=O)cc1 (stereo not drawn) [Example 4-22, 1-(2-cyano-1-cyclopropylethyl)-3-{[4-(dimethylcarbamoyl)phenyl]amino}-1H-pyrazole-4-carboxamide]
8 | 1170 nM | 33 nM | – | – | N#CC[C@@H](C1CCN(C(=O)OC2CCC2)CC1)n1cc(C(N)=O)c(Nc2ccc(F)cc2)n1 [Example 11-5, cyclobutyl 4-[(1S)-1-{4-carbamoyl-3-[(4-fluorophenyl)amino]-1H-pyrazol-1-yl}-2-cyanoethyl]piperidine-1-carboxylate]
9 | 33 nM | 5 nM | – | – | N#CCC(C1CC1)n1cc(C(N)=O)c(Nc2ccc(C#N)cc2)n1 (stereo not drawn) [Example 4-14, 1-(2-cyano-1-cyclopropylethyl)-3-[(4-cyanophenyl)amino]-1H-pyrazole-4-carboxamide]
10 | – | – | 1130 nM | 224 nM | C[C@@H](CC#N)n1cc(C(N)=O)c(Nc2ccccc2)n1 (single isomer, unassigned) [Example 17-1, 1-[(2S or 2R)-1-cyanopropan-2-yl]-3-(phenylamino)-1H-pyrazole-4-carboxamide]
11 | – | – | 800 nM | 136 nM | CC[C@@H](CC#N)n1cc(C(N)=O)c(Nc2ccccc2)n1 (single isomer, unassigned) [Example 16-2, 1-[(1R or 1S)-1-(cyanomethyl)propyl]-3-(phenylamino)-1H-pyrazole-4-carboxamide]
12 | 1500 nM | 122 nM | – | – | CS(=O)(=O)CCOC(=O)N1CCC(C(CC#N)n2cc(C(N)=O)c(Nc3ccc(F)cc3)n2)CC1 (stereo not drawn) [Example 11-3, 2-(methylsulfonyl)ethyl 4-(1-{4-carbamoyl-3-[(4-fluorophenyl)amino]-1H-pyrazol-1-yl}-2-cyanoethyl)piperidine-1-carboxylate]
13 | 1480 nM | 289 nM | – | – | N#CCC(CC1CCOCC1)n1cc(C(N)=O)c(Nc2ccccc2)n1 (stereo not drawn) [Example 1-10, 1-[2-cyano-1-(tetrahydro-2H-pyran-4-ylmethyl)ethyl]-3-(phenylamino)-1H-pyrazole-4-carboxamide]
14 | 66 nM | 7 nM | – | – | COc1cc(Nc2nn(C(CC#N)C3CC3)cc2C(N)=O)ccn1 (stereo not drawn) [Example 4-12, 1-(2-cyano-1-cyclopropylethyl)-3-[(2-methoxypyridin-4-yl)amino]-1H-pyrazole-4-carboxamide]
15 | 73 nM | 13 nM | – | – | N#CCCc1cccc(Nc2nn(C(CC#N)C3CC3)cc2C(N)=O)c1 (stereo not drawn) [Example 4-7, 1-(2-cyano-1-cyclopropylethyl)-3-{[3-(2-cyanoethyl)phenyl]amino}-1H-pyrazole-4-carboxamide]
16 | 999 nM | 194 nM | – | – | CC(C)(O)c1cn(Cc2cccc(Nc3nn(C(CC#N)C4CCCC4)cc3C(N)=O)c2)nn1 (stereo not drawn) [Example 1-8, 1-(2-cyano-1-cyclopentylethyl)-3-[(3-{[4-(1-hydroxy-1-methylethyl)-1H-1,2,3-triazol-1-yl]methyl}phenyl)amino]-1H-pyrazole-4-carboxamide]
17 | 236 nM | 5 nM | – | – | CC(C)(C)OC(=O)N1CCC(C(C)(CC#N)n2cc(C(N)=O)c(Nc3ccccc3)n2)CC1 (stereo not drawn) [Example 3-3, tert-butyl 4-{2-[4-carbamoyl-3-(phenylamino)-1H-pyrazol-1-yl]-1-cyanopropan-2-yl}piperidine-1-carboxylate]
18 | 13 nM | 2 nM | – | – | N#CCC(C1CC1)n1cc(C(N)=O)c(Nc2ccc(S(=O)(=O)C(F)F)cc2)n1 (stereo not drawn) [Example 4-29, 1-(2-cyano-1-cyclopropylethyl)-3-({4-[(difluoromethyl)sulfonyl]phenyl}amino)-1H-pyrazole-4-carboxamide]
19 | 221 nM | 42 nM | – | – | Cc1nnc(-c2ccc(Nc3nn(C(CC#N)C4CC4)cc3C(N)=O)cc2)o1 (stereo not drawn) [Example 4-25, 1-(2-cyano-1-cyclopropylethyl)-3-{[4-(5-methyl-1,3,4-oxadiazol-2-yl)phenyl]amino}-1H-pyrazole-4-carboxamide]
20 | 546 nM | 48 nM | – | – | CCC(CC#N)n1cc(C(N)=O)c(Nc2ccccc2)n1 (stereo not drawn) [Example 1-7, 1-[1-(cyanomethyl)propyl]-3-(phenylamino)-1H-pyrazole-4-carboxamide]
21 | 21 nM | 2 nM | – | – | CNC(=O)c1ccc(Nc2nn(C(CC#N)C3CC3)cc2C(N)=O)cc1 (stereo not drawn) [Example 4-13, 1-(2-cyano-1-cyclopropylethyl)-3-{[4-(methylcarbamoyl)phenyl]amino}-1H-pyrazole-4-carboxamide]
22 | – | – | 257 nM | 34 nM | Cc1noc(-c2ccc(Nc3nn([C@@H](CC#N)C4CC4)cc3C(N)=O)cc2)n1 (single isomer, unassigned) [Example 18-2, 1-[(1R or 1S)-2-cyano-1-cyclopropylethyl]-3-{[4-(3-methyl-1,2,4-oxadiazol-5-yl)phenyl]amino}-1H-pyrazole-4-carboxamide]
23 | – | – | 469 nM | 47 nM | C[C@H](CC#N)n1cc(C(N)=O)c(Nc2ccccc2)n1 (single isomer, unassigned) [Example 17-2, 1-[(2S or 2R)-1-cyanopropan-2-yl]-3-(phenylamino)-1H-pyrazole-4-carboxamide]
24 | 39 nM | 9 nM | – | – | N#CCC(C1CC1)n1cc(C(N)=O)c(Nc2ccc3ccncc3c2)n1 (stereo not drawn) [Example 4-15, 1-(2-cyano-1-cyclopropylethyl)-3-(isoquinolin-7-ylamino)-1H-pyrazole-4-carboxamide]
